Assay results: article PMC8119466, “A screen of FDA-approved drugs identifies inhibitors of protein tyrosine phosphatase 4A3 (PTP4A3 or PRL-3)” (Scientific Reports, 2021)
Where a name gives a salt, the structure may show the parent alone.

Experiments:
[1] = target: T1, recombinant PRL-2 (Homo sapiens, UniProt Q12974); test: In vitro phosphatase assay (DiFMUP hydrolysis), PRL-2; format: biochemical; conditions: for % Phosphatase Activity (compared to DMSO) PRL-2: FDA-approved drug screen;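 for all read-outs here: PRL-2 activity read as DiFMUP hydrolysis after 20 min at room temperature with drug, enzyme first pre-reduced at 4 °C for 20 min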
T1 construct: 6xHis (N, cleaved yes); made in house; host or cells: E. coli One Shot BL21 Star
T1 sequence (Q12974 1-167): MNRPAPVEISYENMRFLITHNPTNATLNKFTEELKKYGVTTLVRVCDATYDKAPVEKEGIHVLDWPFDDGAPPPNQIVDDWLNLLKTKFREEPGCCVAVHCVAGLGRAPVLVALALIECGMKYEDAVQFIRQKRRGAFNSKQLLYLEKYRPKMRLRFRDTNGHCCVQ

[2] = target: T2, recombinant PRL-3 (Homo sapiens, UniProt O75365); test: In vitro phosphatase assay (DiFMUP hydrolysis), PRL-3; format: biochemical; conditions: for % Phosphatase Activity (compared to DMSO) PRL-3: FDA-approved drug screen
T2 construct: 6xHis (N, cleaved yes); made in house; host or cells: E. coli One Shot BL21 Star
T2 sequence (O75365 whole entry): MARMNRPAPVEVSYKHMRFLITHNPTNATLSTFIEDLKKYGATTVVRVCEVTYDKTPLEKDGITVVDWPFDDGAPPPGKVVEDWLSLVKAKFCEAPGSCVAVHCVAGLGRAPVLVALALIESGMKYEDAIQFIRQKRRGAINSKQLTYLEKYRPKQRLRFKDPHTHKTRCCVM

Row | Compound | % Phosphatase Activity (compared to DMSO) PRL-2 ([1]; compared to DMSO) [%] | % Phosphatase Activity (compared to DMSO) PRL-3 ([2]; compared to DMSO) [%] | further results
1 | CC(C)N(CCNC(=O)CN1CCCC1=O)C(C)C [Pramiracetam] | 88 | 88 | 
2 | CN(C/C=C/C#CC(C)(C)C)Cc1cccc2ccccc12 [Terbinafine] |  |  | % Phosphatase Activity (compared to DMSO) PRL-2 ([1]; activity compared to DMSO): 122%; % Phosphatase Activity (compared to DMSO) PRL-3 ([2]; activity compared to DMSO): 84%
3 | COc1cc2nccc(Oc3ccc(NC(=O)C4(C(=O)Nc5ccc(F)cc5)CC4)cc3)c2cc1OC [Cabozantinib (XL184, BMS-907351)] | 96 | 75 | 
4 | CC[C@H]1OC(=O)[C@H](C)[C@@H](O[C@H]2C[C@@](C)(OC)[C@@H](O)[C@H](C)O2)[C@H](C)[C@@H](O[C@@H]2O[C@H](C)C[C@H](N(C)C)[C@H]2O)[C@](C)(OC)C[C@@H](C)C(=O)[C@H](C)[C@@H](O)[C@]1(C)O [Clarithromycin] | 111 | 86 | 
5 | COC1=C(OC)C(=O)C(CCCCCCCCCCO)=C(C)C1=O [Idebenone] | 150 | 101 | 
6 | CC1(C)S[C@@H]2[C@H](NC(=O)Cc3ccccc3)C(=O)N2[C@H]1C(=O)O [Penicillin G Sodium] | 105 | 75 | 
7 | CN(C)CCC(c1ccc(Cl)cc1)c1ccccn1 (stereo not drawn) [Chlorpheniramine Maleate] | 103 | 104 | 
8 | Nc1nc2[nH]cc(CCc3ccc(C(=O)N[C@@H](CCC(=O)[O-])C(=O)[O-])cc3)c2c(=O)[nH]1.Nc1nc2[nH]cc(CCc3ccc(C(=O)N[C@@H](CCC(=O)[O-])C(=O)[O-])cc3)c2c(=O)[nH]1.O.O.O.O.O.[Na+].[Na+].[Na+].[Na+] [Pemetrexed Disodium Hydrate] | 101 | 108 | 
9 | CC/C(=C(\c1ccccc1)c1ccc(OCCN(C)C)cc1)c1ccccc1 [Tamoxifen] |  |  | % Phosphatase Activity (compared to DMSO) PRL-2 ([1]; activity compared to DMSO): 110%; % Phosphatase Activity (compared to DMSO) PRL-3 ([2]; activity compared to DMSO): 81%
10 | CC1(C)O[C@@H]2C[C@H]3[C@@H]4CCC5=CC(=O)CC[C@]5(C)[C@@]4(F)[C@@H](O)C[C@]3(C)[C@]2(C(=O)CCl)O1 [Halcinonide] | 105 | 93 | 
11 | N[C@@H](CSCCCO)C(=O)O [Fudosteine] | 75 | 92 | 
12 | C[N+](C)(C)CCCCCCCCCC[N+](C)(C)C [Decamethonium Bromide] | 118 | 71 | 
13 | N[C@@H]1CON=C1O [D-Cycloserine] | 101 | 95 | 
14 | O=C(NCCN1CCOCC1)c1ccc(Cl)cc1 [Moclobemide (Ro 111163)] | 109 | 83 | 
15 | CC[C@@H](C(N)=O)N1CCCC1=O [Levetiracetam] | 90 | 71 | 
16 | CN1[C@@H]2CC[C@H]1C[C@@H](OC(=O)c1c[nH]c3ccccc13)C2 [Tropisetron] |  |  | % Phosphatase Activity (compared to DMSO) PRL-2 ([1]; activity compared to DMSO): 100%; % Phosphatase Activity (compared to DMSO) PRL-3 ([2]; activity compared to DMSO): 93%
17 | CC1(C)CCC(CN2CCN(c3ccc(C(=O)NS(=O)(=O)c4ccc(NCC5CCOCC5)c([N+](=O)[O-])c4)c(Oc4cnc5[nH]ccc5c4)c3)CC2)=C(c2ccc(Cl)cc2)C1 [ABT-199, reference compound] |  |  | selectivity in inhibiting PRL-2 over other PRLs ([1]; drug 40 µM): demonstrated selectivity in inhibiting PRL-2
18 | Cc1c(-c2ccc(O)cc2)n(Cc2ccc(OCCN3CCCCCC3)cc2)c2ccc(O)cc12 [Bazedoxifene Acetate] | 106 |  | 
19 | C[C@@H]1C[C@H]2[C@@H]3CCC4=CC(=O)C=C[C@]4(C)[C@@]3(F)[C@@H](O)C[C@]2(C)[C@@]1(O)C(=O)CO [Dexamethasone, reference compound] |  |  | effect on PRL phosphatase activity (DiFMUP hydrolysis), in words ([2]; PRL-1, PRL-2, PRL-3 for research-grade inhibitors, PRL-3 for Dexamethasone): no effect on PRL-3 phosphatase activity
20 | Aprotinin | 90 |  | 
